System: Mus musculus
Experiment: Toxicity in ip dosed CD1 mouse
Format: organism-based
Conditions: in vivo

C=C1CCC2OC(CC3=CC4/C(C)=C/CC(C)CC(/C=C/C(O)C5CC(O)C(O)C(CCC(O)/C=C/C(C)=C/CCC6=NCCC(C3)C64C)O5)OC(=O)CC3OC(C(O)CC1C)C(O)C3OS(=O)(=O)O)C(O)CC2O (stereo unspecified) [PROROCENTROLIDE B]
Activity: Toxic
